In experiment [1] the test system is Monocotyledonous and dicotyledonous test plants. Nature of the experiment: Herbicidal action before emergence of the plants (pre-emergence action). The format is in vivo. To be noted: evaluated after 3 weeks, nine-step scale; for pre-emergence action, Cyperus / pre-emergence action, Ipomoea / pre-emergence action, Setaria / pre-emergence action, Sinapis / pre-emergence action, Solanum / pre-emergence action, Stellaria: 2000 g/ha; for Pre-emergence action, Abutilon / Pre-emergence action, Amaranthus / Pre-emergence action, Chenop. / Pre-emergence action, Digitaria / Pre-emergence action, Echino. / Pre-emergence action, Panicum: 250 g/ha. In short, it runs like this:
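Sprayed onto soil immediately after sowing as WP suspension or EC emulsion at 2 kg or 250 g a.i./ha (500 l water/ha). Greenhouse growth for 3 weeks, then scored on a nine-step scale (1 = complete damage, 9 = no effect).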

The test system is the same in experiment [2]. As to the kind of experiment: Post-emergence herbicidal action. In kind it is in vivo. The conditions noted are these: evaluated after approximately 18 days; for Post-emergence action, Ipomoea / Post-emergence action, Lolium / Post-emergence action, Setaria / Post-emergence action, Sinapis / Post-emergence action, Solanum / Post-emergence action, Stellaria: 2000 g/ha, sprayed in 4- to 6-leaf stage, nine-step scale; for Post-emergence action: Abutilon (score, nine-step scale) / Post-emergence action: Chenop. (score, nine-step scale) / Post-emergence action: Digitaria (score, nine-step scale) / Post-emergence action: Echino. (score, nine-step scale) / Post-emergence action: Ipopur. (score, nine-step scale) / Post-emergence action: Panicum (score, nine-step scale) / Post-emergence action: Xanth. (score, nine-step scale): 250 g/ha, sprayed at 4- to 6-leaf stage. In short, it runs like this: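 Scoring uses a 1–9 scale (1 complete damage, 9 no effect), read roughly 18 days post-application. Compounds were applied post-emergence at 4–6 leaves, as aqueous suspension (25% wettable powder) or emulsion (25% emulsion concentrate), at 250 g or 2 kg a.i./ha in 500 l water/ha.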

Regarding `CC1(C)CCC(=O)C(C(=O)c2ccc(C(F)(F)F)nc2C(F)F)=C1O` [Compound A18-B24], in experiment [1], the “pre-emergence action, Cyperus” value was determined as 1; the “pre-emergence action, Ipomoea” value was determined as 1; the “pre-emergence action, Setaria” value is given as 1; the “pre-emergence action, Sinapis” value is on record as 1. Moreover, in experiment [1], the “pre-emergence action, Solanum” value is recorded as 1 and the “pre-emergence action, Stellaria” value is on record as 2. In experiment [2], the “Post-emergence action, Ipomoea” value is 1; the “Post-emergence action, Lolium” value is given as 2; the “Post-emergence action, Setaria” value was 2; the “Post-emergence action, Sinapis” value is 1. Moreover, in experiment [2], the “Post-emergence action, Solanum” value turned out to be 2 and the “Post-emergence action, Stellaria” value was found to be 2.

`COCc1nc(C(F)(F)F)ccc1C(=O)C1=C(O)CCCC1=O` [Compound A8-B1]: in experiment [1], the “Pre-emergence action, Abutilon” value was 1; the “Pre-emergence action, Amaranthus” value turned out to be 1; the “Pre-emergence action, Chenop.” value is 1; the “Pre-emergence action, Digitaria” value turned out to be 2. For the same molecule, in experiment [1], the “Pre-emergence action, Echino.” value is 2 and the “Pre-emergence action, Panicum” value came out at 2. In addition, in experiment [2], the “Post-emergence action: Abutilon (score, nine-step scale)” value came to 3; the “Post-emergence action: Chenop. (score, nine-step scale)” value was 2; the “Post-emergence action: Digitaria (score, nine-step scale)” value is 3; the “Post-emergence action: Echino. (score, nine-step scale)” value stood at 3. Also, in experiment [2], the “Post-emergence action: Ipopur. (score, nine-step scale)” value worked out at 3; the “Post-emergence action: Panicum (score, nine-step scale)” value came out at 4; the “Post-emergence action: Xanth. (score, nine-step scale)” value came to 3.

Take `Cc1c(C(=O)C2=C(Cl)C(C)(C)C(=O)C(C)(C)C2=O)ccc(C(F)(F)F)[n+]1[O-]` [Compound A1210-B1105, 5-Chloro-2,2,6,6-tetramethyl-4-(2-methyl-1-oxy-6-trifluoromethylpyridine-3-carbonyl)cyclohex-4-ene-1,3-dione]: in experiment [1], the “Pre-emergence action, Abutilon” value amounted to 1; the “Pre-emergence action, Amaranthus” value worked out at 4; the “Pre-emergence action, Chenop.” value is 1; the “Pre-emergence action, Digitaria” value is recorded as 3. In addition, in experiment [1], the “Pre-emergence action, Echino.” value amounted to 2 and the “Pre-emergence action, Panicum” value is listed as 2. Besides, in experiment [2], the “Post-emergence action: Abutilon (score, nine-step scale)” value is reported as 2; the “Post-emergence action: Chenop. (score, nine-step scale)” value turned out to be 1; the “Post-emergence action: Digitaria (score, nine-step scale)” value was 2; the “Post-emergence action: Echino. (score, nine-step scale)” value is reported as 3. Moreover, in experiment [2], the “Post-emergence action: Ipopur. (score, nine-step scale)” value worked out at 2; the “Post-emergence action: Panicum (score, nine-step scale)” value is given as 1; the “Post-emergence action: Xanth. (score, nine-step scale)” value is listed as 2.

As for `C#CCC1CC(C)(C)C(=O)C(C(=O)c2ccc(C(F)(F)F)nc2C)=C1O` (centres unmarked) [Compound A2-B1082], in experiment [1], the “pre-emergence action, Cyperus” value was 2; the “pre-emergence action, Ipomoea” value is listed as 2; the “pre-emergence action, Setaria” value was determined as 2; the “pre-emergence action, Sinapis” value was found to be 2. Moreover, in experiment [1], the “pre-emergence action, Solanum” value came out at 1 and the “pre-emergence action, Stellaria” value is 2. In experiment [2], the “Post-emergence action, Ipomoea” value came to 1; the “Post-emergence action, Lolium” value is reported as 2; the “Post-emergence action, Setaria” value is reported as 2; the “Post-emergence action, Sinapis” value amounted to 1. In addition, in experiment [2], the “Post-emergence action, Solanum” value is recorded as 1 and the “Post-emergence action, Stellaria” value was found to be 2.

With `Cc1nc(C(F)(F)F)ccc1C(=O)C1=C(O)C(C)(C)OC(C)(C)C1=O` [Compound A2-B618], in experiment [1], the “pre-emergence action, Cyperus” value amounted to 1; the “pre-emergence action, Ipomoea” value came to 1; the “pre-emergence action, Setaria” value was 1; the “pre-emergence action, Sinapis” value stood at 2. Besides, in experiment [1], the “pre-emergence action, Solanum” value was 1 and the “pre-emergence action, Stellaria” value is given as 1. Moreover, in experiment [2], the “Post-emergence action, Ipomoea” value was 2; the “Post-emergence action, Lolium” value is on record as 2; the “Post-emergence action, Setaria” value is recorded as 2; the “Post-emergence action, Sinapis” value is reported as 1. In experiment [2], the “Post-emergence action, Solanum” value was 2 and the “Post-emergence action, Stellaria” value turned out to be 2.

Regarding `CSC1(C)CC(C)(C)C(=O)C(C(=O)c2ccc(C(F)(F)F)nc2C)=C1O` (centres unmarked) [Compound A2-B95], in experiment [1], the “pre-emergence action, Cyperus” value turned out to be 2; the “pre-emergence action, Ipomoea” value came out at 4; the “pre-emergence action, Setaria” value was determined as 2; the “pre-emergence action, Sinapis” value came out at 2. In addition, in experiment [1], the “pre-emergence action, Solanum” value amounted to 1 and the “pre-emergence action, Stellaria” value was determined as 2. Also, in experiment [2], the “Post-emergence action, Ipomoea” value came to 1; the “Post-emergence action, Lolium” value was 2; the “Post-emergence action, Setaria” value stood at 2; the “Post-emergence action, Sinapis” value stood at 1. In experiment [2], the “Post-emergence action, Solanum” value came out at 2 and the “Post-emergence action, Stellaria” value came out at 2.

`Cc1nc(C(F)(F)F)ccc1C(=O)C1=C(O)C(C)C(C)(C)CC1=O` (centres unmarked) [Compound A2-B1095]: in experiment [1], the “pre-emergence action, Cyperus” value was 3; the “pre-emergence action, Ipomoea” value is reported as 4; the “pre-emergence action, Setaria” value worked out at 2; the “pre-emergence action, Sinapis” value turned out to be 2. In experiment [1], the “pre-emergence action, Solanum” value was 1 and the “pre-emergence action, Stellaria” value came to 2. Besides, in experiment [2], the “Post-emergence action, Ipomoea” value is recorded as 1; the “Post-emergence action, Lolium” value worked out at 2; the “Post-emergence action, Setaria” value is reported as 4; the “Post-emergence action, Sinapis” value was 1. Further, in experiment [2], the “Post-emergence action, Solanum” value came to 2 and the “Post-emergence action, Stellaria” value is recorded as 2.

`Cc1nc(C(F)(F)F)ccc1C(=O)C1=C(O)CCC2(CC2)C1=O` [Compound A2-C1]: in experiment [1], the “pre-emergence action, Cyperus” value was found to be 2; the “pre-emergence action, Ipomoea” value is reported as 3; the “pre-emergence action, Setaria” value was determined as 1; the “pre-emergence action, Sinapis” value is 2. In experiment [1], the “pre-emergence action, Solanum” value is 1 and the “pre-emergence action, Stellaria” value is 2. Further, in experiment [2], the “Post-emergence action, Ipomoea” value amounted to 3; the “Post-emergence action, Lolium” value came to 2; the “Post-emergence action, Setaria” value is 2; the “Post-emergence action, Sinapis” value is 1. For the same molecule, in experiment [2], the “Post-emergence action, Solanum” value is 2 and the “Post-emergence action, Stellaria” value is listed as 2.

Turning to `Cc1nc(C(F)(F)Cl)ccc1C(=O)C1=C(O)CCCC1=O` [Compound A94-B1], in experiment [1], the “pre-emergence action, Cyperus” value came out at 1; the “pre-emergence action, Ipomoea” value came out at 2; the “pre-emergence action, Setaria” value is on record as 2; the “pre-emergence action, Sinapis” value came out at 1. Besides, in experiment [1], the “pre-emergence action, Solanum” value was 1 and the “pre-emergence action, Stellaria” value amounted to 2. In experiment [2], the “Post-emergence action, Ipomoea” value was 1; the “Post-emergence action, Lolium” value worked out at 2; the “Post-emergence action, Setaria” value is listed as 2; the “Post-emergence action, Sinapis” value amounted to 1. Also, in experiment [2], the “Post-emergence action, Solanum” value is reported as 1 and the “Post-emergence action, Stellaria” value came out at 1.

For the molecule `Cc1nc(C(F)(F)F)ccc1C(=O)C1=C(O)C(C)(S(C)(=O)=O)C2CC2C1=O` (centres unmarked) [Compound A2-D115], in experiment [1], the “pre-emergence action, Cyperus” value worked out at 3; the “pre-emergence action, Ipomoea” value was determined as 3; the “pre-emergence action, Setaria” value was 2; the “pre-emergence action, Sinapis” value is 2. Further, in experiment [1], the “pre-emergence action, Solanum” value stood at 2 and the “pre-emergence action, Stellaria” value stood at 3. For the same molecule, in experiment [2], the “Post-emergence action, Ipomoea” value is 1; the “Post-emergence action, Lolium” value came to 2; the “Post-emergence action, Setaria” value is on record as 1; the “Post-emergence action, Sinapis” value amounted to 1. In addition, in experiment [2], the “Post-emergence action, Solanum” value is listed as 1 and the “Post-emergence action, Stellaria” value was determined as 1.

With `Cc1nc(C(F)(F)F)ccc1C(=O)C1=C(O)C(C)CC2(CCC2)C1=O` (centres unmarked) [Compound A2-C152], in experiment [1], the “pre-emergence action, Cyperus” value was found to be 1; the “pre-emergence action, Ipomoea” value was determined as 1; the “pre-emergence action, Setaria” value is 2; the “pre-emergence action, Sinapis” value is recorded as 2. In addition, in experiment [1], the “pre-emergence action, Solanum” value amounted to 1 and the “pre-emergence action, Stellaria” value is 2. Also, in experiment [2], the “Post-emergence action, Ipomoea” value was determined as 2; the “Post-emergence action, Lolium” value stood at 2; the “Post-emergence action, Setaria” value is reported as 3; the “Post-emergence action, Sinapis” value was determined as 1. For the same molecule, in experiment [2], the “Post-emergence action, Solanum” value stood at 2 and the “Post-emergence action, Stellaria” value worked out at 2.

Values taken from US6673938B1, “Substituted pyridine herbicides” (Syngenta Participations AG, priority 1998, dated 2004).
